Test system: severely crushed spinal cord model mice
Test: Severely crushed spinal cord model mice: motor function with BMS score
Format: in vivo, mouse
Settings: for BMS score: 30 mg/kg/day intragastrically
Description: Female C57BL/6J mice (8 weeks old; 19.5-22.0 g) were purchased from Charles River. The female C57BL/6J mice were anesthetized by intraperitoneally administering pentobarbital sodium and underwent back incision under a sterile condition to perform laminectomy at the 10th thoracic vertebra. The spinal cord was crushed at 100 kdyn using a tip with a diameter of 1.35 mm on IH Spinal Cord Impactor. After the occurrence of hematoma in the spinal cord was confirmed under a microscope, the wound was closed and 1 ml of physiological saline was subcutaneously injected into the posterior neck region to prevent dehydration. The mice with spinal cord injury were separated into two groups in a blinded fashion. Zonisamide was diluted with olive oil (solvent) to 3 mg/mL and intragastrically administered to mice in one group at 30 mg/kg/day using a disposable probe needle (flexible type, Fuchigami) for consecutive days from the day of surgery. Mice in the other group received only the solvent using a similar procedure for consecutive days. One day after surgery, motor function of mice in both groups was assessed using BMS score (Basso mouse scale; Li et. al. J Neurosurg Spine 4: 165-173 (2006)) in a blinded fashion to select the mice with BMS score of 1 or lower and consider them as severely crushed spinal cord model mice. The mice received 200 mL of water containing trimethoprim (16 mg)/sulfamethoxazole (80 mg) from a feeder to prevent infection for 3 days after surgery. BMS score is scored by rating ankle movement, weight support, stepping, coordinated motion of forelimbs and hindlimbs (coordination), hindlimb position in walking, trunk stability, and tail position, and ranges from 0 to 9; score 0 corresponds to complete paralysis of hindlimb and score 9 corresponds to normal motion; more specifically, BMS score is described as follows: 0: No ankle movement. 1: Slight ankle movement (less than 50% of the range of motion). 2: Extensive ankle movement (equal to and greater than 50% of the range of motion). 3: Plantar placing of the paw or occasional dorsal stepping. 4: Occasional planter stepping with weight support (equal to and less than 50% of forward movement). 5: Frequent or consistent planter stepping (equal to and greater than 50% of forward movement), no coordination of limbs; or frequent or consistent planter stepping, some coordination of limbs, hindlimb paws rotated at initial contact and lift off. 6: Some coordination of limbs, hindlimb paws parallel at initial contact and rotated at lift off; or mostly coordinated, hindlimb paws rotated at initial contact and lift off. […] BMS scores were measured at days 1, 3, 7, 14, 21, and 28 after surgery in a blinded fashion (FIG. 14).

Question: Which BMS score (day 14 after surgery) does the source give for `NS(=O)(=O)Cc1noc2ccccc12` [Zonisamide, 3-sulfamoylmethyl-1,2-benzisoxazole] here?
Answer: The BMS score was 3.2±0.3.

Question: What about the BMS score (day 21 after surgery) of the same compound?
Answer: The BMS score was 3.2±0.4.

Question: What about the BMS score (day 28 after surgery) of the same compound?
Answer: The BMS score was 3.7±0.4.

Question: And the “BMS score compared to the control group” value (since day 14 after surgery)?
Answer: Its value is “significantly higher”.
